Test results from patent EP4603105A1, “PHARMACEUTICAL COMPOSITION CONTAINING CYCLIC COMPOUND HAVING SELECTIVE KRAS INHIBITORY EFFECT AGAINST HRAS AND NRAS” (CHUGAI SEIYAKU KABUSHIKI KAISHA, priority 2022, dated 2024).
Like-named read-outs stand apart in the source and are kept apart here. *1 amine or outer side, *2 acyl side, *3 side chain or, on linkers, in order; H or OH if unused. Where a SMILES comes first, the peptide text is derived from it. Bridges are numbered along the chain shown (N, C = ends). [ ]: non-standard residue; d: D form. The star is where a group is joined. hPhe(3-Cl-4-CF3) = N[C@@H](CCc1ccc(C(F)(F)F)c(Cl)c1)C(=O)O; X22 = C=CCCN([C@@H](Cc1ccc(C(F)(F)F)cc1)C(=O)[*:2])[*:1]; NPrPhe(4-CF3) = CCCN[C@@H](Cc1ccc(C(F)(F)F)cc1)C(=O)O; NMeGly(cPent) = CN[C@H](C(=O)O)C1CCCC1; NMeD = CN[C@@H](CC(=O)O)C(=O)O; NMeL = CN[C@@H](CC(C)C)C(=O)O; Morpholide = C1CN(*)CCO1; NMeA = CN[C@@H](C)C(=O)O; Ac5c = NC1(C(=O)O)CCCC1; Aze = O=C(O)[C@@H]1CCN1; Ac4c = NC1(C(=O)O)CCC1; Sar = CNCC(=O)O

Assays:
[1] = target: GDP-bound NRAS wild-type protein (Homo sapiens, UniProt P01111); test: Binding to NRAS by surface plasmon resonance (SPR), KD and KD ratio to KRAS
How it was run: (§1)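 GDP-loaded biotinylated Avi-tag RAS proteins (E. coli-expressed) captured on a Biotin CAPture chip at ~100–300 RU; single-cycle kinetics at 30°C, 100 µL/min, 75 s injections of rising compound concentrations. HBS pH 7.4 running buffer with 1 mM DTT, 10 mM MgCl2, 10 µM GDP, 4% DMSO. KD from 1:1 binding fit.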

HRAS wild-type protein = HRAS wild-type protein (Homo sapiens, UniProt P01112); test: Binding to HRAS by surface plasmon resonance (SPR), KD and KD ratio to KRAS
How it was run: as §1

[2] = system: human lung cancer strain NCI-H441; assay type: cell-based
How it was run: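 Readout: […] after the ATP-based reagent. Compound: serial dilutions in dimethyl sulfoxide.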

[3] = ratio of KD value for GDP-bound NRAS wild-type protein to KD value for KRAS (SPR)
[4] = ratio of KD value for HRAS wild-type protein to KD value for KRAS (SPR)
[5] = ratio of KD for GDP-bound NRAS wild-type protein to KD for KRAS
[6] = ratio of KD for HRAS wild-type protein to KD for KRAS
[7] = ratio of the KD value with respect to GDP-bound NRAS wild-type protein to the KD value with respect to KRAS
[8] = ratio of the KD value with respect to HRAS wild-type protein to the KD value with respect to KRAS

HRAS wild-type protein, sequence (P01112 whole entry): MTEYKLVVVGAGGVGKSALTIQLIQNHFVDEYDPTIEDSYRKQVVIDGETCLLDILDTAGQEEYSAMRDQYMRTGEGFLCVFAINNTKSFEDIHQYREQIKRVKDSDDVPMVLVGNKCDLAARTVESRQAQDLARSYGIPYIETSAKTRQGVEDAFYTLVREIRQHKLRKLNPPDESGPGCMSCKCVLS
GDP-bound NRAS wild-type protein, sequence (P01111 whole entry): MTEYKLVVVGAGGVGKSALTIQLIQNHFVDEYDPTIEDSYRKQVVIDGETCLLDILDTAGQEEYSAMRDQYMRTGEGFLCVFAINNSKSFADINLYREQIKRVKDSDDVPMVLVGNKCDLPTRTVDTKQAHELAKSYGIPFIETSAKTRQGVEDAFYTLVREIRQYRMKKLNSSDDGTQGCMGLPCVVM

Row | SMILES | NRAS /KRAS [1, 3] | HRAS /KRAS (HRAS wild-type protein; [4]) | IC50 [2] | NRAS /KRAS [1, 5] | HRAS /KRAS (HRAS wild-type protein; [6]) | IC50 ([2]; NCI-H441 cells, 4 days, CellTiter-Glo, read-out: NCl-H441 IC50) | NRAS /KRAS [1, 7] | HRAS /KRAS (HRAS wild-type protein; [8])
1 | CCO[C@@H]1C[C@H]2C(=O)NC3(CC(F)(F)C3)C(=O)N(C)[C@@H](C3CCCC3)C(=O)N(C)[C@H](CC)CC(=O)N(C)[C@@H](CC)C(=O)N[C@@H]([C@@H](C)CC)C(=O)N(C)CC(=O)N(C)[C@H]3C/C=C\CCN(C3=O)[C@@H](Cc3ccc(C(F)(F)F)cc3)C(=O)N(C)CC(=O)N[C@@H](CCc3cc(F)c(C(F)(F)F)c(F)c3)C(=O)N2C1 [PP1627] | A (a compound having 10 or more and less than 20 is denoted as A) | A (a compound having 10 or more and less than 20 is denoted as A) | 22.9 nM |  |  |  |  | 
2 | CCO[C@@H]1C[C@H]2C(=O)NC3(CCC3)C(=O)N(C)[C@@H](C3CCCC3)C(=O)N(C)[C@H](C(=O)N(C)C)CC(=O)N(CC)[C@@H](CC(C)C)C(=O)N[C@@H]([C@@H](C)CC)C(=O)N(C)CC(=O)N(C)[C@H]3C/C=C\CCN(C3=O)[C@@H](Cc3ccc(C(F)(F)F)cc3)C(=O)N(C)CC(=O)N[C@@H](CCc3cc(F)c(C(F)(F)F)c(F)c3)C(=O)N2C1 [PP1765] | A (a compound having 10 or more and less than 20 is denoted as A) | A (a compound having 10 or more and less than 20 is denoted as A) | 16.8 nM |  |  |  |  | 
3 | CCC[C@H]1C(=O)N[C@@H](C2CCCC2)C(=O)N(C)CC(=O)N(C)[C@H]2C/C=C\CCN(C2=O)[C@@H](Cc2ccc(C(F)(F)F)cc2)C(=O)N(C)CC(=O)N[C@@H](CCc2ccc(C(F)(F)F)c(Cl)c2)C(=O)N2C[C@H](OCC)C[C@H]2C(=O)NC2(CC(C)(C)C2)C(=O)N(C)[C@@H](C2CCCC2)C(=O)N(C)[C@H](C(=O)N(C)C)CC(=O)N1C [PP2984] |  |  | 9.6 nM | A (a compound having 10 or more and less than 20 is denoted as A) | B (a compound having 3 or more and less than 10 is denoted as B) |  |  | 
4 | CCC[C@H]1C(=O)N[C@@H]([C@@H](C)CC)C(=O)N(C)CC(=O)N(C)[C@H]2C/C=C\CCN(C2=O)[C@@H](Cc2ccc(C(F)(F)F)cc2)C(=O)N(C)CC(=O)N[C@@H](CCc2ccc(Cl)c(OC)c2)C(=O)N2C[C@H](OCC)C[C@H]2C(=O)NC2(CC(C)(C)C2)C(=O)N(C)[C@@H](C2CCCC2)C(=O)N(C)[C@H](C(=O)N(C)C)CC(=O)N1C [PP2788] |  |  | 24.4 nM | A (a compound having 10 or more and less than 20 is denoted as A) | A (a compound having 10 or more and less than 20 is denoted as A) |  |  | 
5 | CCCN(C)C(=O)[C@@H]1CC(=O)N(C)[C@@H](CC(F)F)C(=O)N[C@@H]([C@@H](C)CC)C(=O)N(C)CC(=O)N(C)[C@H]2C/C=C\CCN(C2=O)[C@@H](Cc2ccc(C(F)(F)F)cc2)C(=O)N(C)CC(=O)N[C@@H](CCc2cc(F)c(C(F)(F)F)c(F)c2)C(=O)N2C[C@H](OCC)C[C@H]2C(=O)NC2(CCC2)C(=O)N(C)[C@@H](C2CCCC2)C(=O)N1C [PP1700] | A (a compound having 10 or more and less than 20 is denoted as A) | A (a compound having 10 or more and less than 20 is denoted as A) | 3.6 nM |  |  |  |  | 
6 | CCC[C@H]1C(=O)N[C@@H]([C@@H](C)CC)C(=O)N(C)CC(=O)N(C)[C@H]2C/C=C\CCN(C2=O)[C@@H](Cc2ccc(C(F)(F)F)cc2)C(=O)N(C)CC(=O)N[C@@H](CCc2cc(C)c(C(F)F)c(Cl)c2)C(=O)N2C[C@H](OCC)C[C@H]2C(=O)NC2(CC(C)(C)C2)C(=O)N(C)[C@@H](C2CCCC2)C(=O)N(C)[C@H](C(=O)N(C)C)CC(=O)N1C [PP2866] |  |  |  | A (a compound having 10 or more and less than 20 is denoted as A) | A (a compound having 10 or more and less than 20 is denoted as A) | 39.6 nM |  | 
7 | CCO[C@@H]1C[C@H]2C(=O)NC3(CCC3)C(=O)N(C)[C@@H](C3CCCC3)C(=O)N(C)[C@H](C(=O)N(C)C)CC(=O)N(C)[C@@H](CC(F)(F)F)C(=O)N[C@@H]([C@@H](C)CC)C(=O)N(C)CC(=O)N(C)[C@H]3C/C=C\CCN(C3=O)[C@@H](Cc3ccc(C(F)(F)F)cc3)C(=O)N(C)CC(=O)N[C@@H](CCc3cc(F)c(C(F)(F)F)c(F)c3)C(=O)N2C1 [PP1124] |  |  | 12.4 nM | A (a compound having 10 or more and less than 20 is denoted as A) | B (a compound having 3 or more and less than 10 is denoted as B) |  |  | 
8 | C=CCCN1C(=O)CN(C)C(=O)CN(C)C(=O)[C@H]([C@@H](C)CC)NC(=O)[C@H](CC(C)C)N(C)C(=O)C[C@@H](C(=O)N2CCOCC2)N(C)C(=O)[C@H](C2CCCC2)N(C)C(=O)C2(CCCC2)NC(=O)[C@@H]2CCCN2C(=O)[C@H](CCc2ccc(C(F)(F)F)c(Cl)c2)NC(=O)CN(C)C(=O)[C@@H]1Cc1ccc(C(F)(F)F)cc1 [PP0129] ([NMeL]I[Sar][Sar][X22][Sar][hPhe(3-Cl-4-CF3)]P[Ac5c][NMeGly(cPent)][NMeD]-Morpholide; lactam N-11) |  |  | 8.8 nM | B (a compound having 3 or more and less than 10 is denoted as B) | C (A compound having a KD ratio of 0.1 or more and less than 3 is denoted as C) |  |  | 
9 | CCCN1C(=O)[C@@H]2CCN2C(=O)[C@H](C)N(C)C(=O)[C@H]([C@@H](C)CC)NC(=O)[C@H](CC(C)C)N(C)C(=O)C[C@@H](C(=O)N(C)C)N(C)C(=O)[C@H](C2CCCC2)N(C)C(=O)C2(CCC2)NC(=O)[C@@H]2CCCN2C(=O)[C@H](CCc2ccc(C(F)(F)F)c(Cl)c2)NC(=O)CN(C)C(=O)[C@@H]1Cc1ccc(C(F)(F)F)cc1 [PP0435] ([NMeL]I[NMeA][Aze][NPrPhe(4-CF3)][Sar][hPhe(3-Cl-4-CF3)]P[Ac4c][NMeGly(cPent)][NMeD]-NMe2; lactam N-11) |  |  | 2.6 nM |  |  |  | C (A compound having a KD ratio of 0.1 or more and less than 3 is denoted as C) | C (A compound having a KD ratio of 0.1 or more and less than 3 is denoted as C)
10 | CCCOC[C@H]1C(=O)N[C@@H]([C@@H](C)CC)C(=O)N(C)CC(=O)N(C)[C@H]2C/C=C\CCN(C2=O)[C@@H](Cc2ccc(C(F)(F)F)cc2)C(=O)N(C)CC(=O)N[C@@H](CCc2cc(F)c(C(F)(F)F)c(F)c2)C(=O)N2C[C@H](F)C[C@H]2C(=O)NC2(CC(C)(C)C2)C(=O)N(C)[C@@H](C2CCCC2)C(=O)N(C)[C@H](C(=O)N(C)CCC)CC(=O)N1C [PP1698] | A (a compound having 10 or more and less than 20 is denoted as A) | A (a compound having 10 or more and less than 20 is denoted as A) | 5.1 nM |  |  |  |  | 
11 | CC[C@H](C)[C@@H]1NC(=O)[C@H](CC(C)C)N(C)C(=O)C[C@@H](C(=O)N2CCOCC2)N(C)C(=O)[C@H](C2CCCC2)N(C)C(=O)C2(CCC2)NC(=O)[C@@H]2[C@@H](O)CCN2C(=O)[C@H](CCc2cc(F)c(C(F)(F)F)c(F)c2)NC(=O)CN(C)C(=O)[C@H](Cc2ccc(C(F)(F)F)cc2)N2CCCC[C@@H](C2=O)N(C)C(=O)CN(C)C1=O [PP0869] |  |  | 134 nM | B (a compound having 3 or more and less than 10 is denoted as B) | B (a compound having 3 or more and less than 10 is denoted as B) |  |  | 
12 | CCO[C@@H]1C[C@H]2C(=O)NC3(CC(C)(C)C3)C(=O)N(C)[C@@H](C(CC)CC)C(=O)N(C)[C@H](C(=O)N(C)C)CC(=O)N(C)[C@@H](COC)C(=O)N[C@@H]([C@@H](C)CC)C(=O)N(C)CC(=O)N(C)[C@H]3C/C=C\CCN(C3=O)[C@@H](Cc3ccc(C(F)(F)F)cc3)C(=O)N(C)CC(=O)N[C@@H](CCc3ccc(C(F)(F)F)c(OC)c3)C(=O)N2C1 [PP2157] |  |  | 5.9 nM |  |  |  | A (a compound having 10 or more and less than 20 is denoted as A) | A (a compound having 10 or more and less than 20 is denoted as A)
13 | CCC[C@H]1C(=O)N[C@@H]([C@@H](C)CC)C(=O)N2CCC[C@H]2C(=O)N(C)[C@H]2C/C=C\CCN(C2=O)[C@@H](Cc2ccc(C)cc2)C(=O)N(C)CC(=O)N[C@@H](CCc2cc(F)c(C(F)(F)F)c(F)c2)C(=O)N2C[C@H](OCC)C[C@H]2C(=O)N(C)C2(CCC2)C(=O)N(C)[C@@H](C2CCCC2)C(=O)N(C)[C@H](C(=O)N2CCCCC2)CC(=O)N1C [PP3115] |  |  | 5.7 nM | A (a compound having 10 or more and less than 20 is denoted as A) | B (a compound having 3 or more and less than 10 is denoted as B) |  |  | 
14 | CC[C@H](C)[C@@H]1NC(=O)[C@H](CC2CC2)N(C)C(=O)C[C@@H](C(=O)N(C)C)N(C)C(=O)[C@H](C2CCCC2)N(C)C(=O)C2(CCC2)NC(=O)[C@@H]2CC(F)(F)CN2C(=O)[C@H](CCc2cc(F)c(C(F)(F)F)c(F)c2)NC(=O)CN(C)C(=O)[C@H](Cc2ccc(C(F)(F)F)cc2)N2CC/C=C\C[C@@H](C2=O)N(C)C(=O)CN(C)C1=O [PP1500] | A (a compound having 10 or more and less than 20 is denoted as A) | A (a compound having 10 or more and less than 20 is denoted as A) | 6.9 nM |  |  |  |  | 
15 | CCO[C@@H]1C[C@H]2C(=O)NC3(CCCC3)C(=O)N(C)[C@@H](C3CCCC3)C(=O)N(C)[C@H](C(=O)N3CCOCC3)CC(=O)N(C)[C@@H](CC(C)C)C(=O)N[C@@H]([C@@H](C)CC)C(=O)N(C)CC(=O)N(C)[C@H]3CC(C)=CCN(C3=O)[C@@H](Cc3ccc(C(F)(F)F)cc3)C(=O)N(C)CC(=O)N[C@@H](CCc3cc(F)c(C(F)(F)F)c(F)c3)C(=O)N2C1 [PP1038] |  |  | 188 nM | C (A compound having a KD ratio of 0.1 or more and less than 3 is denoted as C) | C (A compound having a KD ratio of 0.1 or more and less than 3 is denoted as C) |  |  | 
